Experimental data published in patent publication US20090004121A1, “Combination of picotamide with nafronyl” (priority 2007, published 2009).
Where a name gives a salt, the structure may show the parent alone. Read-outs that look alike come from different tables or passages of the source.

What was measured:
Format in all cases: cell-based
Thoracic aortic rings = test: Contracting effect on rat aortic rings (organ bath); conditions: mean ±S.E.M.
Description: Thoracic aortic rings obtained from male Wistar rats are carefully cleaned of connective tissue. The aortic rings are suspended in the isolated muscle bath (20 mL). Each segment is suspended under a tension of 1 g in Krebs buffer (NaCl 118 mM, KCl 5.4 mM, CaCl2 2.5 mM, MgCl2.6H2O 1.5 mM, NaHCO3 25 mM, NaH2PO4 1.2 mM, glucose 10 mM; pH 7.4) which was bubbled with O2 95%/CO2 5% at 37° C. in 20 mL organ baths (EMKA Technologies, Paris, France). The muscle tension of aortic rings is isometrically recorded with a force-displacement transducer IT1 (EMKA Technologies, Paris, France). The buffer is renewed at 15 min intervals during the equilibrium period (40 min) before exposing the rings to the TXA2-mimetic U-46619 (20 nM), 8-iso-prostaglandin F2α (1 μM) or serotonin (5-hydroxy-tryptamine, 5-HT, 2 μM). When a stable tension is obtained (15 min), the compound of interest is added at a cumulative increasing concentration to the bath until the tension returned to the baseline value. Tension is recorded with a specific data acquisition program (IOX 1.445, EMKA Technologies, Paris, France). The EC50 value of each drug is assessed for at least 6 concentration-response curves obtained from separate preparations. EC50 is expressed as the concentration which reduces 50% of the tension induced by the contracting agent. The results are expressed as mean ±S.E.M. Nafronyl oxalate was obtained from Sigma-Aldrich; picotamide monohydrate was obtained from the European Directory of Quality of Medicines. […] These values are in line with results obtained in previous studies (S. W. Watts and J. M. Thompson, J Pharmacol Exp Ther 309:165-172, 2004; M. Lohn et al., FASEB J 16:1057-63, 2002).

[1] = tested on: Thoracic aortic rings precontracted with serotonin; test: Relaxation of rat aortic rings using serotonin 2 μM as contracting agent; conditions: for EC50: Rattus norvegicus, read-out: EC50 relaxing effect
Description: (§1) Thoracic aortic rings obtained from male Wistar rats are carefully cleaned of connective tissue. The aortic rings are suspended in the isolated muscle bath (20 mL). Each segment is suspended under a tension of 1 g in Krebs buffer (NaCl 118 mM, KCl 5.4 mM, CaCl2 2.5 mM, MgCl2.6H2O 1.5 mM, NaHCO3 25 mM, NaH2PO4 1.2 mM, glucose 10 mM; pH 7.4) which was bubbled with O2 95%/CO2 5% at 37° C. in 20 mL organ baths (EMKA Technologies, Paris, France). The muscle tension of aortic rings is isometrically recorded with a force-displacement transducer IT1 (EMKA Technologies, Paris, France). The buffer is renewed at 15 min intervals during the equilibrium period (40 min) before exposing the rings to the TXA2-mimetic U-46619 (20 nM), 8-iso-prostaglandin F2α (1 μM) or serotonin (5-hydroxy-tryptamine, 5-HT, 2 μM). When a stable tension is obtained (15 min), the compound of interest is added at a cumulative increasing concentration to the bath until the tension returned to the baseline value. Tension is recorded with a specific data acquisition program (IOX 1.445, EMKA Technologies, Paris, France). The EC50 value of each drug is assessed for at least 6 concentration-response curves obtained from separate preparations. EC50 is expressed as the concentration which reduces 50% of the tension induced by the contracting agent. The results are expressed as mean ±S.E.M. Nafronyl oxalate was obtained from Sigma-Aldrich; picotamide monohydrate was obtained from the European Directory of Quality of Medicines. Nafronyl oxalate was confirmed to be a potent serotonin antagonist with an EC50 1.54·10^−8 M for its relaxing effect.

[2] = tested on: rat aorta rings pretreated with 8-iso-prostaglandin F2α; test: Relaxation of rat aortic rings using 8-iso-prostaglandin F2α 1 μM as contracting agent
Description: as §1, with “Relaxation experiments on aortas precontracted” for “Nafronyl oxalate was confirmed to be a potent serotonin antagonist”, “8-iso-prostaglandin F2α 1 μM were done with picotamide monohydrate alone in increasing concentrations of 10^−8 M, 10^−7 M, 10^−6 M, 10^−5 M, 10^−4 M, as well as with the same concentrations of picotamide monohydrate in the presence of 1 μM nafronyl.” for “an EC50 1.54·10^−8 M for its relaxing effect.”

CCCCC[C@H](O)/C=C/[C@@H]1[C@H](C/C=C\CCCC(=O)O)[C@@H](O)C[C@H]1O [8-iso-PGF2α, 8-iso-prostaglandin F2α]
EC50 (Thoracic aortic rings): 1000 ± 100 nM

CCN(CC)CCOC(=O)C(Cc1cccc2ccccc12)CC1CCCO1 (stereo not drawn) [Nafronyl oxalate, 2-diethylaminoethyl 2-(naphthalen-1-ylmethyl)-3-(oxolan-2-yl)propanoate]
EC50 ([1]; drug alone): 15.4 nM
EC50 ([1]; in the presence of 10^−6 M picotamide): 13.3 nM
EC50 ([2]; drug alone): 3880 nM

COc1ccc(C(=O)NCc2cccnc2)cc1C(=O)NCc1cccnc1 [Picotamide monohydrate, N,N′-bis-(3-picolyl)-4-methoxy-isophthalamide]
tension reduction ([1]; 10^−5 M picotamide): 30%
EC50 ([2]; drug alone): 16400 nM
EC50 ([2]; together with 10^−6 M nafronyl oxalate): 2340 nM

CCCCC[C@H](O)/C=C/[C@@H]1[C@@H](C/C=C\CCCC(=O)O)[C@H]2CO[C@@H]1C2 [U-46619]
EC50 (Thoracic aortic rings): 12.2 ± 2.68 nM

NCCc1c[nH]c2ccc(O)cc12 [serotonin, 5-hydroxy-tryptamine]
EC50 (Thoracic aortic rings): 980 ± 90 nM
